This is an account of results in patent US20100029620A1, “SUBSTITUTED TRIAZOLINE, TETRAZOLONE AND IMIDAZOLONE DERIVATIVES FOR USE AS A MEDICINE” (JANSSEN PHARMACEUTICA N.V., priority 2004, published 2010).

The target of test [1] is T1, human adrenergic-α2A receptor (Homo sapiens, UniProt P08913).
T1 construct: expressed in transfected cells; membrane preparation
T1 sequence (P08913 1-465): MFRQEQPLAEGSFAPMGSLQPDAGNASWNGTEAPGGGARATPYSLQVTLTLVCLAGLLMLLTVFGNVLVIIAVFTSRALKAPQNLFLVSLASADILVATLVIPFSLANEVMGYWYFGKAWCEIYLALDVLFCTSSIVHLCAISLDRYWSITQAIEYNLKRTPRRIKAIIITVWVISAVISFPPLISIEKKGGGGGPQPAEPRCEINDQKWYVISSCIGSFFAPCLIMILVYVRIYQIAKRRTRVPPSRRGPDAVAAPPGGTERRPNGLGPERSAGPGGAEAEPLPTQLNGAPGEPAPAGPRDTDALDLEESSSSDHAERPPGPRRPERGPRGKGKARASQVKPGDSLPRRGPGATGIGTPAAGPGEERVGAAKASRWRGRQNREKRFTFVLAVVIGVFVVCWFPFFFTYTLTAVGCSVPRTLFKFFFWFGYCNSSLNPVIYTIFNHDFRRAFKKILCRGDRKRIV
Briefly: Radioligand binding experiment for α2A-adrenoceptor ([3H]-raulwolscine competition, CHO cell membranes). The settings on record: [3H]raulwolscine 1 nM, membranes of CHO cells transfected with human α2A receptor; read-out: pIC50 α2A (converted). The procedure:
(§1) The interaction of the compounds of Formula (I) with α2C-adrenoceptor receptors was assessed in in vitro radioligand binding experiments. In general, a low concentration of a radioligand with a high binding affinity for a particular receptor or transporter is incubated with a sample of a tissue preparation enriched in a particular receptor or transporter or with a preparation of cells expressing cloned human receptors in a buffered medium. During the incubation, the radioligand binds to the receptor or transporter. When equilibrium of binding is reached, the receptor bound radioactivity is separated from the non-bound radioactivity, and the receptor- or transporter-bound activity is counted. The interaction of the test compounds with the receptor is assessed in competition binding experiments. Various concentrations of the test compound are added to the incubation mixture containing the receptor- or transporter preparation and the radioligand. The test compound in proportion to its binding affinity and its concentration inhibits binding of the radioligand. The radioligand used for […] receptor binding was [^3H]-raulwolscine.
(§2) CHO cells, stabile transfected with human adrenergic-α2A-, -α2B or α2C receptor cDNA, were cultured in Dulbecco's Modified Eagle's Medium (DMEM)/Nutrient mixture Ham's F12 (ratio 1:1)(Gibco, Gent-Belgium) supplemented with 10% heat inactivated fetal calf serum (Life Technologies, Merelbeke-Belgium) and antibiotics (100 IU/ml penicillin G, 100 μg/ml streptomycin sulphate, 110 μg/ml pyruvic acid and 100 μg/ml L-glutamine). One day before collection, cells were induced with 5 mM sodiumbutyrate. Upon 80-90% of confluence, cells were scraped in phosphate buffered saline without Ca^2+ and Mg^2+ and collected by centrifugation at 1500×g for 10 min. The cells were homogenised in Tris-HCl 50 mM using an Ultraturrax homogenizer and centrifuged for 10 min at 23,500×g. The pellet was washed once by resuspension and rehomogenization and the final pellet was resuspended in Tris-HCl, divided in 1 ml aliquots and stored at −70° C.
(§3) Membranes were thawed and re-homogenized in incubation buffer (glycylglycine 25 mM, pH 8.0). In a total volume of 500 μl, 2-10 μg protein was incubated with [^3H]raulwolscine (NET-722) (New England Nuclear, USA) (1 nM final concentration) with or without competitor for 60 min at 25° C. followed by rapid filtration over GF/B filter using a Filtermate196 harvester (Packard, Meriden, Conn.). Filters were rinsed extensively with ice-cold rinsing buffer (Tris-HCl 50 mM pH 7.4). Filter-bound radioactivity was determined by scintillation counting in a Topcount (Packard, Meriden, CT) and results were expressed as counts per minute (cpm). Non-specific binding was determined in the presence of 1 μM oxymetazoline for hα2A- and hα2B receptors and 1 μM spiroxatrine for hα2C receptors.
(§4) Data from assays in the presence of compound were calculated as a percentage of total binding measured in the absence of test compound. Inhibition curves, plotting percent of total binding versus the log value of the concentration of the test compound, were automatically generated, and sigmoidal inhibition curves were fitted using non-linear regression. The pIC50 values of test compounds were derived from individual curves.

Test [2] concerns the target T2, human adrenergic-α2B receptor (Homo sapiens, UniProt P18089).
T2 construct: expressed in transfected cells; membrane preparation
T2 sequence (P18089 1-450): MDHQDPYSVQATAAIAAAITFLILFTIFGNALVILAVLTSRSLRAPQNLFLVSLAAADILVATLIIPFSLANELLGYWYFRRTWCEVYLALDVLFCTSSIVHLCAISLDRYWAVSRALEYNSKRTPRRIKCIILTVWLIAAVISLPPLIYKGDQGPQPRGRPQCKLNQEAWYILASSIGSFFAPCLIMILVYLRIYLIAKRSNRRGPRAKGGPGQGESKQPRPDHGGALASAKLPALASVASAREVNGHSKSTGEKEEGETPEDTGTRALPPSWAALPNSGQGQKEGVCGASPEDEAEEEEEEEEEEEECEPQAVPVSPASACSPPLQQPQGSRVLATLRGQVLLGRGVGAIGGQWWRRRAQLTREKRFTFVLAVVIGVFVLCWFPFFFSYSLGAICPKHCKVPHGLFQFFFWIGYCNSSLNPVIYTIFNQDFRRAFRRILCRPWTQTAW
Briefly: Radioligand binding experiment for α2B-adrenoceptor ([3H]-raulwolscine competition, CHO cell membranes). Particulars: [3H]raulwolscine 1 nM, membranes of CHO cells transfected with human α2B receptor; read-out: pIC50 α2B (converted). As to the method:
as §1, §2, §3, §4

Test [3] concerns the target T3, human adrenergic-α2C receptor (Homo sapiens, UniProt P18825).
T3 construct: expressed in transfected cells; membrane preparation
T3 sequence (P18825 1-462): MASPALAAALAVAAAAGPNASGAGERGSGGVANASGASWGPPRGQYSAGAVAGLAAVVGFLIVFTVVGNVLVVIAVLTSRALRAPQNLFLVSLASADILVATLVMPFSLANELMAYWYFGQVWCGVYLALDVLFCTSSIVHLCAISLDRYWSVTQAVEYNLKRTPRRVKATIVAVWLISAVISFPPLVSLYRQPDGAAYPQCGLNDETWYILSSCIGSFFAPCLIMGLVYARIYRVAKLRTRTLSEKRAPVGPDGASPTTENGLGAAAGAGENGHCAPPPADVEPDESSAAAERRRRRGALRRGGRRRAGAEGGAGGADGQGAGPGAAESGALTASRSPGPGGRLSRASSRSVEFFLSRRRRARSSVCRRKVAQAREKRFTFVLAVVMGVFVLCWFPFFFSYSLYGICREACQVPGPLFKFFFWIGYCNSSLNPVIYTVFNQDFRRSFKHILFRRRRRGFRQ
Briefly: Radioligand binding experiment for α2C-adrenoceptor ([3H]-raulwolscine competition, CHO cell membranes). Particulars: [3H]raulwolscine 1 nM, membranes of CHO cells transfected with human α2C receptor; read-out: pIC50 α2C (converted). As to the method:
as §1, §2, §3, §4

For the compound `CC(NCCOc1ccccc1)C(C)n1ncn(-c2ccc(N3CCN(c4ccc(O)cc4)CC3)cc2)c1=O` (racemic) [compound 5], the figures for the IC50 in test [1], in test [2] and in test [3] were 501 nM, 501 nM and 10 nM, respectively.
For `CC(NCCOc1ccccc1)C(C)n1ncn(-c2ccc(N3CCN(c4ccc(O)cc4)CC3)cc2)c1=O` (single isomer, unassigned) [compound 4], the IC50 in test [1] is 2510 nM; in test [2] it was 200 nM; in test [3] it was 6.31 nM.
Turning to `CC(NCCOc1ccccc1)C(C)n1ncn(-c2ccc(N3CCN(c4ccc(O)cc4)CC3)cc2)c1=O` (single isomer, unassigned) [compound 6], the IC50 in test [1] was 7940 nM; in test [3], 200 nM.
In the same order, the values of `COc1ccc(N2CCN(c3ccc(-n4cnn(CCN(C)CCOc5ccccc5)c4=O)cc3)CC2)cc1` [compound 9] are above 10000 nM and 794 nM.
In the same order, the values of `COc1ccc(N2CCN(c3ccc(-n4cnn(Cc5ccc(CN)cc5)c4=O)cc3)CC2)cc1` [compound 11] are 7940 nM and 794 nM.
As for `COc1ccccc1C1CCN(c2ccc(-n3cnn(CCNCCOc4ccccc4)c3=O)cc2)C1` (stereo not drawn) [compound 15], the IC50 is 794 nM in test [1] and 100 nM in test [3].
For `O=c1n(-c2ccc(N3CCOCC3)cc2)cnn1CCNCCOc1ccccc1` [compound 22], in that order: 794 nM and 50.1 nM.
For `O=c1n(-c2ccc(CN3CCOCC3)cc2)cnn1CCNCCOc1ccc(F)cc1` [compound 25], in that order: 2510 nM and 50.1 nM.
For `C/C(=C\c1ccc(F)cc1)CN1CCN(CCn2ncn(Cc3ccc(CN)cc3)c2=O)CC1` [compound 35], in that order: 126 nM and 50.1 nM.
For the compound `COc1ccc(N2CCN(c3ccc(-n4cnn(C5CCN(Cc6ccc7c(c6)OCCO7)CC5)c4=O)cc3)CC2)cc1` [compound 56], the IC50 was above 10000 nM in test [1] and 1000 nM in test [3].
In the same order, the values of `COc1ccc(N2CCN(c3ccc(-n4cnn(C5CCN(C/C(C)=C/c6ccccc6)CC5)c4=O)cc3)CC2)cc1` [compound 57] are above 10000 nM and 79.4 nM.
`COc1ccc(N2CCN(c3ccc(-n4cnn(C5CCN(CCOc6ccccc6)CC5)c4=O)cc3)CC2)cc1` [compound 58]: the IC50 in test [1] was 1260 nM; in test [3], 50.1 nM.
In the same order, the values of `COc1ccc(N2CCN(c3ccc(-n4cnn(Cc5ccc(CN6CCOCC6)cc5)c4=O)cc3)CC2)cc1` [compound 59] are 1580 nM and 631 nM.
Turning to `C/C(=C\c1ccccc1)CN1CCC(n2ncn(-c3ccc(CN4CCOCC4)cc3)c2=O)CC1` [compound 69], the IC50 in test [1] is 158 nM; in test [3], 25.1 nM.
In the same order, the values of `C/C(=C\c1ccccc1)CN1CCC(Cn2ncn(-c3ccc(CN4CCOCC4)cc3)c2=O)CC1` [compound 70] are 398 nM and 39.8 nM.
In the same order, the values of `O=c1n(-c2ccc(CN3CCOCC3)cc2)cnn1CC1CCN(Cc2ccc3ccccc3c2)CC1` [compound 74] are 794 nM and 158 nM.
For `Cc1cc(CN2CCC(Cn3ncn(-c4ccc(CN5CCOCC5)cc4)c3=O)CC2)oc1C` [compound 76], in that order: above 10000 nM and 794 nM.
Take `O=c1n(-c2ccc(CN3CCOCC3)cc2)cnn1CC1CCN(Cc2cc3ccccc3o2)CC1` [compound 77]: the values for the IC50 in test [1] and in test [3] were 3160 nM and 251 nM, respectively.
Turning to `C/C(=C\c1ccccc1)CN1CCC(n2cnn(-c3ccc(CN4CCOCC4)cc3)c2=O)CC1` [compound 80], the IC50 was 63.1 nM in test [1] and 39.8 nM in test [3].
On to `C/C(=C\c1ccccc1)CN1CCC(n2cnn(Cc3ccc(CN4CCOCC4)cc3)c2=O)CC1` [compound 81], for which the IC50 in test [1] was 631 nM; in test [3], 79.4 nM.
In the same order, the values of `O=c1n(CCNCCOc2ccccc2)nnn1-c1ccc(CN2CCOCC2)cc1` [compound 106] are 398 nM and 39.8 nM.
For `N#Cc1cccc(NCCCN2CCN(CCn3ncn(CC4CCN(CCOc5ccccc5)CC4)c3=O)CC2)c1` [compound 124], the IC50 in test [1] was 63.1 nM; in test [3], 1.58 nM.
For `O=c1n(CC2CCN(CCOc3ccccc3)CC2)cnn1CCN1CCN(Cc2ccc3ncccc3c2)CC1` [compound 126], in that order: 200 nM and 12.6 nM.
For `O=c1n(CC2CCN(CCOc3ccccc3)CC2)cnn1CCN1CCN(c2cccc3c2OCCO3)CC1` [compound 127], in that order: 63.1 nM and 3.98 nM.
For the compound `O=c1n(CC2CCN(CCOc3ccccc3)CC2)cnn1CCN1CCN(Cc2cc3ccccc3[nH]2)CC1` [compound 128], the IC50 in test [1] is 79.4 nM; in test [3], 12.6 nM.
In the same order, the values of `O=c1n(CC2CCN(CCOc3ccccc3)CC2)cnn1CCN1CCN(Cc2c[nH]c3ccc(F)cc23)CC1` [compound 129] are 50.1 nM and 2 nM.
Take `O=c1n(CC2CCN(CCOc3ccccc3)CC2)cnn1CCN1CCN(Cc2cc3ccccc3s2)CC1` [compound 130]: the IC50 in test [1] is 50.1 nM; in test [3], 2.51 nM.
In the same order, the values of `O=c1n(CC2CCN(CCOc3ccccc3)CC2)cnn1CCN1CC2CC=CCC1CN2c1ccc2ccccc2c1` (stereo not drawn) [compound 131] are 126 nM and 7.94 nM.
For `CC(C)(C)C(=O)Cn1cnn(CC2CCN(CCOc3ccccc3)CC2)c1=O` [compound 132], in that order: 63.1 nM and 5.01 nM.
